Measurements as given in patent publication US10131652B2, “Pyrimidinyloxy benzene derivatives as herbicides” (E. I. DU PONT DE NEMOURS AND COMPANY, priority 2014, dated 2018).

How the values were obtained:
Type in all cases: in vivo
rice (Oryza sativa) = assay: Test C flooded paddy test plant response; conditions: Flood, 250 g ai/ha; scale of 0 to 100 where 0 is no effect and 100 is complete control; 13 to 15 days
Summary of the method: (§1)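 Readout is a visual 0–100 score (100 = complete control) versus controls at 13–15 days. Plants at 2-leaf stage, flooded to 3 cm, treated through paddy water.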

[1] = system: barnyardgrass (Echinochloa crus-galli); assay: Test C flooded paddy test plant response; conditions: Flood, 250 g ai/ha; scale of 0 to 100 where 0 is no effect and 100 is complete control; 13 to 15 days
Summary of the method: as §1

[2] = system: small-flower umbrella sedge (Cyperus difformis); assay: Test C flooded paddy test plant response; conditions: Flood, 250 g ai/ha; scale of 0 to 100 where 0 is no effect and 100 is complete control; 13 to 15 days
Summary of the method: as §1

[3] = system: ducksalad (Heteranthera limosa); assay: Test C flooded paddy test plant response; conditions: Flood, 250 g ai/ha; scale of 0 to 100 where 0 is no effect and 100 is complete control; 13 to 15 days
Summary of the method: as §1

kochia (Kochia scoparia) [4] = assay: Test B pre-/postemergence plant response
Summary of the method: (§2)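 Evaluation is visual, about 10 days after application, rating injury from 0 (none) to 100 (complete control) relative to untreated controls. Application was a preemergence soil spray on seeded pots or a postemergence spray on one- to two-leaf plants.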

corn (Zea mays) = assay: Test B pre-/postemergence plant response
Summary of the method: as §2

[5] = system: barnyardgrass (Echinochloa crus-galli); assay: Test B pre-/postemergence plant response
Summary of the method: as §2

[6] = system: pigweed (Amaranthus retroflexus); assay: Test B pre-/postemergence plant response
Summary of the method: as §2

[7] = system: Italian ryegrass (Lolium multiflorum); assay: Test B pre-/postemergence plant response
Summary of the method: as §2

[8] = system: wheat (Triticum aestivum); assay: Test B pre-/postemergence plant response
Summary of the method: as §2

[9] = system: ragweed (common ragweed, Ambrosia elatior); assay: Test B pre-/postemergence plant response
Summary of the method: as §2

[10] = system: giant foxtail (Setaria faberii); assay: Test B pre-/postemergence plant response
Summary of the method: as §2

[11] = system: galium (catchweed bedstraw, Galium aparine); assay: Test B postemergence plant response
Summary of the method: (§3)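 Values are visual control ratings (0 to 100) recorded approximately 10 days after postemergence application to greenhouse-grown plants of 2 to 10 cm, one- to two-leaf stage, each judged against untreated controls.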

[12] = system: blackgrass (Alopecurus myosuroides); assay: Test B postemergence plant response
Summary of the method: as §3

kochia (Kochia scoparia) [13] = assay: Test D postemergence plant response; conditions: for Kochia plant response rating: scale 0 to 100 (0 no effect, 100 complete control); for Plant response rating, Kochia: scale 0 to 100, 0 no effect, 100 complete control
Summary of the method: (§4)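 Visual 0–100 rating vs controls (0 = no effect, 100 = complete control), scored 13–15 d after postemergence spray. Plants 1- to 4-leaf stage (2–18 cm), potted in peat/vermiculite mix, kept in greenhouse.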

[14] = system: chickweed (common chickweed, Stellaria media); assay: Test D postemergence plant response; conditions: for Chickweed plant response rating: scale 0 to 100 (0 no effect, 100 complete control); for Plant response rating, Chickweed: scale 0 to 100, 0 no effect, 100 complete control
Summary of the method: as §4

wild oat (Avena fatua) = assay: Test D postemergence plant response; conditions: for Oat, Wild plant response rating: scale 0 to 100 (0 no effect, 100 complete control); for Plant response rating, Oat, Wild: scale 0 to 100, 0 no effect, 100 complete control
Summary of the method: as §4

[15] = 125 g ai/ha, postemergence, 0 to 100 scale, 0 no effect, 100 complete control
[16] = Postemergence, 500 g ai/ha, 0 to 100 scale (0 no effect, 100 complete control)
[17] = Preemergence, 125 g ai/ha, 0 to 100 scale where 0 is no effect and 100 is complete control
[18] = Preemergence, 500 g ai/ha, 0 to 100 scale where 0 is no effect and 100 is complete control

With `FC(F)(F)c1cc(-c2ccccc2Oc2ncc(Cl)cn2)ncn1` [Compound 54] the “Rice plant response rating” value (rice (Oryza sativa)) was 0, the “Barnyardgrass plant response rating” value [1] was 0 and the “Sedge, Umbrella plant response rating” value [2] was 0. The “Ducksalad plant response rating” value [3] was 60, the “Plant response rating, Kochia” value (kochia (Kochia scoparia) [4]; [15]) was 100 and the “Plant response rating, Kochia” value (kochia (Kochia scoparia) [4]; [16]) was 100. The “Plant response rating, Kochia” value (kochia (Kochia scoparia) [4]; [17]) was 80, the “Plant response rating, Kochia” value (kochia (Kochia scoparia) [4]; [18]) was 100 and the “Plant response rating, Corn” value (corn (Zea mays); [15]) was 0. For the same compound, the “Plant response rating, Corn” value (corn (Zea mays); [16]) was 0, the “Plant response rating, Barnyardgrass” value [5, 15] was 20 and the “Plant response rating, Barnyardgrass” value [5, 16] was 100. For the same compound, the “Plant response rating, Barnyardgrass” value [5, 17] was 60, the “Plant response rating, Barnyardgrass” value [5, 18] was 100 and the “Plant response rating, Pigweed” value [6, 15] was 100. The “Plant response rating, Pigweed” value [6, 16] was 100, the “Plant response rating, Pigweed” value [6, 17] was 100 and the “Plant response rating, Pigweed” value [6, 18] was 100. For the same compound, the “Plant response rating, Ryegrass, Italian” value [7, 15] was 30, the “Plant response rating, Ryegrass, Italian” value [7, 16] was 60 and the “Plant response rating, Ryegrass, Italian” value [7, 17] was 30. The “Plant response rating, Ryegrass, Italian” value [7, 18] was 60, the “Plant response rating, Wheat” value [8, 15] was 0 and the “Plant response rating, Wheat” value [8, 16] was 0. The “Plant response rating, Ragweed” value [9, 15] was 50, the “Plant response rating, Ragweed” value [9, 16] was 60 and the “Plant response rating, Ragweed” value [9, 17] was 60. For the same compound, the “Plant response rating, Ragweed” value [9, 18] was 70, the “Plant response rating, Foxtail, Giant” value [10, 15] was 80 and the “Plant response rating, Foxtail, Giant” value [10, 16] was 100. The “Plant response rating, Foxtail, Giant” value [10, 17] was 100, the “Plant response rating, Foxtail, Giant” value [10, 18] was 100 and the “Plant response rating, Galium” value [11, 15] was 100. For the same compound, the “Plant response rating, Galium” value [11, 16] was 100, the “Plant response rating, Blackgrass” value [12, 15] was 70 and the “Plant response rating, Blackgrass” value [12, 16] was 80. The “Kochia plant response rating” value (kochia (Kochia scoparia) [13]; 16 g ai/ha) was 50, the “Kochia plant response rating” value (kochia (Kochia scoparia) [13]; 31 g ai/ha) was 55 and the “Plant response rating, Kochia” value (kochia (Kochia scoparia) [13]; 62 g ai/ha) was 80. For the same compound, the “Plant response rating, Kochia” value (kochia (Kochia scoparia) [13]; 125 g ai/ha) was 80, the “Chickweed plant response rating” value ([14]; 16 g ai/ha) was 5 and the “Chickweed plant response rating” value ([14]; 31 g ai/ha) was 5. The “Plant response rating, Chickweed” value ([14]; 62 g ai/ha) was 5, the “Plant response rating, Chickweed” value ([14]; 125 g ai/ha) was 5 and the “Oat, Wild plant response rating” value (wild oat (Avena fatua); 16 g ai/ha) was 0. For the same compound, the “Oat, Wild plant response rating” value (wild oat (Avena fatua); 31 g ai/ha) was 0, the “Plant response rating, Oat, Wild” value (wild oat (Avena fatua); 62 g ai/ha) was 5 and the “Plant response rating, Oat, Wild” value (wild oat (Avena fatua); 125 g ai/ha) was 5.
